The conditions of the data set: 1008.1 K; Crystal; Closed cell (Static) method.

We go through one molecule from the NIST ThermoML archive (doi:10.1021/acs.jced.6b00043).

What is called vapor or sublimation pressure is the pressure of vapour in equilibrium with the condensed phase.

On to `O=C([O-])[O-].[Li+].[Li+]` [lithium carbonate], for which the “vapor or sublimation pressure” value was 1.552 kPa.
